Laboratory results as given in patent US10323000B2, “Indole derivatives and their use in neurodegenerative diseases” (priority 2014, dated 2019).
Where two headings read alike, the source gives them in different places.

What was measured:
[1] = target: P2X7 (IL-1β release from THP-1 cells) (Homo sapiens (Human), UniProt Q99572); assay: IL-1β release assay; format: cell-based
Procedure, shortened: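 THP-1 cells were differentiated with PMA 0.5 μM and primed 4 h with LPS 10 ng/ml. They were then pre-incubated 20 min with compound at 37° C and stimulated 30 min with BzATP 0.8 mM. Mature IL-1β released into the supernatant was quantified by sandwich ELISA.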

human P2X7 receptor = human P2X7 receptor (Homo sapiens (Human), UniProt Q99572); assay: Pore permeation assay (YO PRO dye uptake); format: cell-based
[2] = THP-1 cells, LPS primed, 0.8 mM BzATP, mature IL-1β by sandwich ELISA, read-out: hTHP-1/IL-ib IC50
[3] = HEK293 transfected with human P2X7, BzATP 10 uM, YO PRO dye uptake, read-out: hP2X7 IC50

human P2X7 receptor, sequence (Q99572 whole entry): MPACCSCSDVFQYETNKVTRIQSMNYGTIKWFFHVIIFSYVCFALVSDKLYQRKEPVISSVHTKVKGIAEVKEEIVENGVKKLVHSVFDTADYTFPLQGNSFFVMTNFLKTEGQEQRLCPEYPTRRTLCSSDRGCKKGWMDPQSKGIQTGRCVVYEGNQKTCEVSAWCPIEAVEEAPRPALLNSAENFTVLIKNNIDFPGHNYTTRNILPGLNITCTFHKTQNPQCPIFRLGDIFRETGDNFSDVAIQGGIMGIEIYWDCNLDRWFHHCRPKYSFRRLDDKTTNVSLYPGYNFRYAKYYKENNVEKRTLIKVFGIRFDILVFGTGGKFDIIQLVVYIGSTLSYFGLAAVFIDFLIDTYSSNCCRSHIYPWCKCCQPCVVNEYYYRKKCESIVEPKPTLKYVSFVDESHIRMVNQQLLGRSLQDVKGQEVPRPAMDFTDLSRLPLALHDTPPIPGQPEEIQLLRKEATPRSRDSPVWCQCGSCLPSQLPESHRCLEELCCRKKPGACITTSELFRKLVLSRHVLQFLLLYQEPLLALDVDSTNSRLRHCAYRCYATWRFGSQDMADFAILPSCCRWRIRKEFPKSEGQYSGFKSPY
P2X7 (IL-1β release from THP-1 cells), sequence (Q99572 whole entry): as above

SMILES | IC50 [1] [nM] | IC50 (human P2X7 receptor) [nM] | IC50 [1, 2] [nM] | IC50 (human P2X7 receptor; [3]) [nM]
O=C(NCC(c1ccccc1)C1CCCC1)c1cn(C2COC2)c2cccc(Cl)c12 (stereo not drawn) [Compound 70, 4-Chloro-1-oxetan-3-yl-1H-indole-3-carboxylic acid (2-cyclopentyl-2-phenyl-ethyl)-amide] | 101 to 500 | 10 to 100 | – | –
O=C(NCC1CCCOC1)c1cn(C2COC2)c2cccc(Cl)c12 (stereo not drawn) [Compound 74, 4,4-Chloro-1-oxetan-3-yl-1H-indole-3-carboxylic acid (tetrahydro-pyran-3-ylmethyl)-amide] | – | – | > 1000 | > 1000
O=C(NCC1(O)CCCC(F)(F)C1)c1cn(CC2CCNC2)c2cccc(Cl)c12 (stereo not drawn) [Compound 159, 4-chloro-N-((3,3-difluoro-1-hydroxycyclohexyl)methyl)-1-(pyrrolidin-3-ylmethyl)-1H-indole-3-carboxamide] | 101 to 500 | 10 to 100 | – | –
C[C@@H]1CCC[C@](O)(CNC(=O)c2cn(C3COC3)c3cccc(Cl)c23)C1 [Compound 93, 4-chloro-N-(((1R,3R)-1-hydroxy-3-methylcyclohexyl)methyl)-1-(oxetan-3-yl)-1H-indole-3-carboxamide] | 10 to 100 | – | – | < 10
C[C@@H]1CCC[C@](O)(CNC(=O)c2cn(CCC(F)F)c3cccc(Cl)c23)C1 [Compound 8, 4-Chloro-1-(3,3-difluoro-propyl)-1H-indole-3-carboxylic acid ((1R,3R)-1-hydroxy-3-methyl-cyclohexylmethyl)-amide] | 101 to 500 | 10 to 100 | – | –
O=C(NCC1CCC(F)(F)CC1)c1cn(CC2COCCO2)c2cccc(Cl)c12 (stereo not drawn) [Compound 150, 1-((1,4-dioxan-2-yl)methyl)-4-chloro-N-((4,4-difluorocyclohexyl)methyl)-1H-indole-3-carboxamide] | 10 to 100 | 10 to 100 | – | –
CC1(C)CCCC(O)(CNC(=O)c2cn(C3CCOC3)c3cccc(Cl)c23)C1 (stereo not drawn) [Compound 107, 4-Chloro-1-(tetrahydro-furan-3-yl)-1H-indole-3-carboxylic acid (1-hydroxy-3,3-dimethyl-cyclohexylmethyl)-amide] | 101 to 500 | 10 to 100 | – | –
O=C(NCC1CCC(F)(F)CC1)c1cn(C[C@@H]2CCN2)c2cccc(Cl)c12 [Compound 122, (S)-1-(azetidin-2-ylmethyl)-4-chloro-N-((4,4-difluorocyclohexyl)methyl)-1H-indole-3-carboxamide] | 10 to 100 | 10 to 100 | – | –
CC(C)N(C)C(=O)Cn1cc(C(=O)NCC2CCC(F)(F)CC2)c2c(Cl)cccc21 [Compound 203, 4-Chloro-1-[(isopropyl-methyl-carbamoyl)-methyl]-1H-indole-3-carboxylic acid (4,4-difluoro-cyclohexylmethyl)-amide] | 101 to 500 | 10 to 100 | – | –
O=C(NCC1(O)CCCC(F)(F)C1)c1cn(CC2CNC2)c2cccc(Cl)c12 (stereo not drawn) [Compound 125] | 10 to 100 | 10 to 100 | – | –
O=C(NCC1CCC(F)(F)CC1)c1cn(C[C@H]2CCN2)c2cccc(Cl)c12 [Compound 123, (R)-1-(azetidin-2-ylmethyl)-4-chloro-N-((4,4-difluorocyclohexyl)methyl)-1H-indole-3-carboxamide] | 101 to 500 | 101 to 500 | – | –
CC1CC(F)(F)CC(O)(CNC(=O)c2cn(C3COC3)c3cccc(Cl)c23)C1 (stereo not drawn) [Compound 89, 4-chloro-N-((3,3-difluoro-1-hydroxy-5-methylcyclohexyl)methyl)-1-(oxetan-3-yl)-1H-indole-3-carboxamide] | 500 to 999 | 101 to 500 | – | –
O=C(NCC1(O)CCCC(F)(F)C1)c1cn(CC2CCOC2)c2cccc(Cl)c12 (stereo not drawn) [Compound 146, 4-chloro-N-((3,3-difluoro-1-hydroxycyclohexyl)methyl)-1-((tetrahydrofuran-3-yl)methyl)-1H-indole-3-carboxamide] | 10 to 100 | 10 to 100 | – | –
O=C(NC[C@@H]1CCCC(F)(F)C1)c1cn(C2COC2)c2cccc(Cl)c12 [Compound 66, 4-chloro-N—(((R)-3,3-difluorocyclohexyl)methyl)-1-(oxetan-3-yl)-1H-indole-3-carboxamide] | 101 to 500 | 10 to 100 | – | –
O=C(NC[C@@]1(O)CCCC(F)(F)C1)c1cn(C[C@@H]2CCCO2)c2cccc(Cl)c12 [Compound 129] | 500 to 999 | 101 to 500 | – | –
O=C(NCC1CCC(F)(F)CC1)c1cn(CCC(F)(F)F)c2cccc(Cl)c12 [Compound 13, 4-chloro-N-((4,4-difluorocyclohexyl)methyl)-1-(3,3,3-trifluoropropyl)-1H-indole-3-carboxamide] | 10 to 100 | 10 to 100 | – | –
COCCn1cc(C(=O)NCC2CCC(F)(F)CC2)c2c(Cl)cccc21 [Compound 41, 4-chloro-N-((4,4-difluorocyclohexyl)methyl)-1-(2-methoxyethyl)-1H-indole-3-carboxamide] | – | 10 to 100 | < 10 | –

SMILES | IC50 [1] [nM] | IC50 (human P2X7 receptor) [nM] | IC50 [1, 2] [nM] | IC50 (human P2X7 receptor; [3]) [nM]
O=C(NCC1CCC(F)(F)CC1)c1cn(CC2CCNCC2)c2cccc(Cl)c12 [Compound 175, 4-chloro-N-((4,4-difluorocyclohexyl)methyl)-1-(piperidin-4-ylmethyl)-1H-indole-3-carboxamide] | 101 to 500 | 101 to 500 | – | –
O=C(NC[C@]1(O)CCCC(F)(F)C1)c1cn(C[C@@H]2CCCO2)c2cccc(Cl)c12 [Compound 130, 4-chloro-N—(((S)-3,3-difluoro-1-hydroxycyclohexyl)methyl)-1-(((S)-tetrahydrofuran-2-yl)methyl)-1H-indole-3-carboxamide] | 10 to 100 | 10 to 100 | – | –
O=C(NCC1CCC(F)(F)CC1)c1cn(C[C@H]2CCCN2)c2cccc(Cl)c12 [Compound 154, (R)-4-chloro-N-((4,4-difluorocyclohexyl)methyl)-1-(pyrrolidin-2-ylmethyl)-1H-indole-3-carboxamide] | 10 to 100 | 10 to 100 | – | –
O=C(NCC1CCCC(C(F)(F)F)C1)c1cn(C2CCOC2)c2cccc(Cl)c12 (stereo not drawn) [Compound 112, 4-Chloro-1-(tetrahydro-furan-3-yl)-1H-indole-3-carboxylic acid (3-trifluoromethyl-cyclohexylmethyl)-amide] | 101 to 500 | 10 to 100 | – | –
O=C(NCC1C[C@@H]2CC[C@H]1C2)c1cn(C2CCOC2)c2cccc(Cl)c12 (stereo partly drawn) [Compound 105, 4-Chloro-1-(tetrahydro-furan-3-yl)-1H-indole-3-carboxylic acid ((1S,4R)-1-bicyclo[2.2.1]hept-2-ylmethyl)-amide] | 101 to 500 | 10 to 100 | – | –
O=C(NCC1CCC(F)(F)CC1)c1cn(CC(F)(F)F)c2cccc(Cl)c12 [Compound 5, 4-chloro-N-((4,4-difluorocyclohexyl)methyl)-1-(2,2,2-trifluoroethyl)-1H-indole-3-carboxamide] | 101 to 500 | 10 to 100 | – | –
O=C(NCC1(O)CCC(F)(F)CC1)c1cn(C2CCCO2)c2cccc(Cl)c12 (stereo not drawn) [Compound 98, 4-chloro-N-((4,4-difluoro-1-hydroxycyclohexyl)methyl)-1-(tetrahydrofuran-2-yl)-1H-indole-3-carboxamide] | 101 to 500 | 101 to 500 | – | –
CN1CCCC1Cn1cc(C(=O)NCC2CCC(F)(F)CC2)c2c(Cl)cccc21 (stereo not drawn) [Compound 170, 4-chloro-N-((4,4-difluorocyclohexyl)methyl)-1-((1-methylpyrrolidin-2-yl)methyl)-1H-indole-3-carboxamide] | 10 to 100 | 10 to 100 | – | –
O=C(NCC1(O)CCC(F)(F)CC1)c1cn(CC2CCOC2)c2cccc(Cl)c12 (stereo not drawn) [Compound 147, 4-chloro-N-((4,4-difluoro-1-hydroxycyclohexyl)methyl)-1-((tetrahydrofuran-3-yl)methyl)-1H-indole-3-carboxamide] | 10 to 100 | 10 to 100 | – | –
O=C(NCC1(O)CCCC(F)(F)C1)c1cn(CCN2CCCC2=O)c2cccc(Cl)c12 (stereo not drawn) [Compound 188, 4-chloro-N-((3,3-difluoro-1-hydroxycyclohexyl)methyl)-1-(2-(2-oxopyrrolidin-1-yl)ethyl)-1H-indole-3-carboxamide] | 10 to 100 | 10 to 100 | – | –
COCCn1cc(C(=O)NCCc2ccc(F)cc2Cl)c2c(Cl)cccc21 [Compound 34, 4-Chloro-1-(2-methoxy-ethyl)-1H-indole-3-carboxylic acid [2-(4-fluoro-2-chloro-phenyl)-ethyl]-amide] | 101 to 500 | 101 to 500 | – | –
COCCn1cc(C(=O)NCC2(O)CCCC(F)(F)C2)c2c(Cl)cccc21 (stereo not drawn) [Compound 37, 4-chloro-N-((3,3-difluoro-1-hydroxycyclohexyl)methyl)-1-(2-methoxyethyl)-1H-indole-3-carboxamide] | 10 to 100 | 10 to 100 | – | –
O=C(NCC1CCC(F)(F)CC1)c1cn(CC2CCCN2)c2cccc(Cl)c12 (stereo not drawn) [Compound 158, 4-chloro-N-((4,4-difluorocyclohexyl)methyl)-1-(pyrrolidin-2-ylmethyl)-1H-indole-3-carboxamide] | – | – | < 10 | < 10
CC1CCCC(O)(CNC(=O)c2cn(C3COC3)c3cccc(Cl)c23)C1 (stereo not drawn) [Compound 83, 4-chloro-N-((1-hydroxy-3-methylcyclohexyl)methyl)-1-(oxetan-3-yl)-1H-indole-3-carboxamide] | 10 to 100 | – | – | < 10
O=C(NCC1CCC(F)(F)CC1)c1cn(CC2(O)CC2)c2cccc(Cl)c12 [Compound 117, 4-chloro-N-((4,4-difluorocyclohexyl)methyl)-1-((1-hydroxycyclopropyl)methyl)-1H-indole-3-carboxamide] | 101 to 500 | 10 to 100 | – | –
CC1CC(F)(F)CC(O)(CNC(=O)c2cn(CC3CCCO3)c3cccc(Cl)c23)C1 (stereo not drawn) [Compound 138, 4-chloro-N-((3,3-difluoro-1-hydroxy-5-methylcyclohexyl)methyl)-1-((tetrahydrofuran-2-yl)methyl)-1H-indole-3-carboxamide] | 101 to 500 | 101 to 500 | – | –
